Measurements: patent publication US4450269A, “Mono-5-substituted-3-chloro-4H-1,2,6-thiadiazin-4-one antifungal agents” (FMC Corporation, priority 1980, dated 1984)
Counter-ions that a name gives are not always drawn.

System: Pyricularia oryzae
Test: microbe, parasite or virus in culture
Assay type: cell-based
Settings: for inhibition at 5 ppm / inhibition at 10 ppm / inhibition at 20 ppm / inhibition at 40 ppm: Pyricularia oryzae, 72 h; for inhibition at 5 ppm: read-out: Percent Fungus Growth Inhibition, PO, 5 ppm, 72 hours; for inhibition at 10 ppm: read-out: Percent Fungus Growth Inhibition, PO, 10 ppm, 72 hours; for inhibition at 20 ppm: read-out: Percent Fungus Growth Inhibition, PO, 20 ppm, 72 hours; for inhibition at 40 ppm: read-out: Percent Fungus Growth Inhibition, PO, 40 ppm, 72 hours; for Percent Fungus Growth Inhibition: PO, 72 hours

Molecule	inhibition at 5 ppm	inhibition at 10 ppm	inhibition at 20 ppm	inhibition at 40 ppm	other results
O=c1c(Cl)nsnc1Oc1ccc(F)cc1 [Compound 11, 3-chloro-5-(4-fluorophenoxy)-4H--1,2,6-thiadiazin-4-one]	15%	38%	54%	62%	–
CC(=O)c1cccc(Oc2nsnc(Cl)c2=O)c1 [Compound 48, 3-(3-acetylphenoxy)-5-chloro-4H--1,2,6-thiadiazin-4-one]	56%	67%	100%	100%	–
Cc1cc(Cl)ccc1Oc1nsnc(Cl)c1=O [Compound 55, 3-chloro-5-(4-chloro-2-methylphenoxy)-4H--1,2,6-thiadiazin-4-one]	41%	59%	51%	53%	–
Cc1cc(Oc2nsnc(Cl)c2=O)cc(C)c1Cl [Compound 59, 3-chloro-5-[(4-chloro-3,5-dimethyl)phenoxy]-4H--1,2,6-thiadiazin-4-one]	50%	61%	50%	50%	–
CC(=O)c1ccc(Oc2nsnc(Cl)c2=O)cc1 [Compound 47, 3-(4-acetylphenoxy)-5-chloro-4H--1,2,6-thiadiazin-4-one]	78%	78%	100%	89%	–
Cc1ccc(Oc2nsnc(Cl)c2=O)cc1 [Compound 3, 3-chloro-5-(4-methylphenoxy)-4H--1,2,6-thiadiazin-4-one]	19%	41%	41%	93%	–
O=c1c(Cl)nsnc1Oc1c(Cl)cc(Cl)cc1Cl [Compound 30, 3-chloro-5-(2,4,6-trichlorophenoxy)-4H--1,2,6-thiadiazin-4-one]	10%	71%	84%	90%	–
CC(=O)c1ccccc1Oc1nsnc(Cl)c1=O [Compound 49, 3-(2-acetylphenoxy)-5-chloro-4H--1,2,6-thiadiazin-4-one]	29%	38%	53%	74%	–
O=c1c(Cl)nsnc1Oc1ccc(Cl)c(Cl)c1 [Compound 16, 3-chloro-5-(3,4-dichlorophenoxy)-4H--1,2,6-thiadiazin-4-one]	41%	48%	48%	41%	–
COc1ccc(Cl)c(Oc2nsnc(Cl)c2=O)c1 [Compound 51, 3-chloro-5-[(2-chloro-5-methoxy)phenoxy]-4H--1,2,6-thiadiazin-4-one]	46%	77%	92%	100%	–
CC(C)(C)c1ccc(Oc2nsnc(Cl)c2=O)cc1 [Compound 4, 3-chloro-5-(4-tert-butylphnoxy)-4H--1,2,6-thiadiazin-4-one]	0%	0%	0%	19%	–
CCOC(=O)c1ccc(Oc2nsnc(Cl)c2=O)cc1 [Compound 7, 3-chloro-5-(4-ethoxycarbonylphenoxy)-4H--1,2,6-thiadiazin-4-one]	19%	65%	77%	81%	–
Cc1ccccc1Oc1nsnc(Cl)c1=O [Compound 22, 3-chloro-5-(2-methylphenoxy)-4H--1,2,6-thiadiazin-4-one]	21%	33%	54%	63%	–
N#CCc1ccc(Oc2nsnc(Cl)c2=O)cc1 [Compound 46, 3-chloro-5-[(4-cyanomethyl)-phenoxy]4H--1,2,6-thiadiazin-4-one]	38%	77%	100%	100%	–
O=C(OCc1ccccc1)Oc1ccc(Oc2nsnc(Cl)c2=O)cc1 [Compound 38, 3-chloro-5-[4-(phenylmethoxycarbonyloxy)phenoxyl]-4H-1,2,6-thiadiazin-4-one]	8%	15%	23%	46%	–
O=c1c(Cl)nsnc1Oc1ccc([N+](=O)[O-])cc1Cl [Compound 53, 3-chloro-5-(2-chloro-4-nitrophenoxy)-4H--1,2,6-thiadiazin-4-one]	69%	75%	78%	67%	–
Cc1cccc(Oc2nsnc(Cl)c2=O)c1 [Compound 21, 3-chloro-5-(3-methylphenoxy)-4H--1,2,6-thiadiazin-4-one]	33%	33%	50%	58%	–
O=c1c(Cl)nsnc1Oc1cccc(C(F)(F)F)c1 [Compound 44, 3-chloro-5-[(3-trifluoromethyl)phenoxy]-4H--1,2,6-thiadiazin-4-one]	54%	71%	93%	100%	–
O=c1c(Cl)nsnc1Oc1ccc([N+](=O)[O-])cc1 [Compound 9, 3-chloro-5-(4-nitrophenoxy)-4H--1,2,6-thiadiazin-4-one]	22%	48%	70%	93%	–
O=c1c(Cl)nsnc1Oc1ccccc1Cl [Compound 14, 3-chloro-5-(2-chlorophenoxy)-4H--1,2,6-thiadiazin-4-one]	23%	26%	55%	100%	–

Molecule	inhibition at 5 ppm	inhibition at 10 ppm	inhibition at 20 ppm	inhibition at 40 ppm	other results
3-chloro-5-(bromophenoxy)-4H-1,2,6-thiadiazin-4-one [Compound 33]	–	–	–	–	Percent Fungus Growth Inhibition (5 ppm): 53%; Percent Fungus Growth Inhibition (10 ppm): 68%; Percent Fungus Growth Inhibition (20 ppm): 100%; Percent Fungus Growth Inhibition (40 ppm): 100%
CC(=O)Nc1ccccc1Oc1nsnc(Cl)c1=O [Compound 43, 3-[(2-acetylamino)-phenoxy]-5-chloro-4H--1,2,6-thiadiazin-4-one]	13%	18%	24%	24%	–
COc1ccc(Oc2nsnc(Cl)c2=O)cc1 [Compound 5, 3-chloro-5-(4-methoxyphenoxy)4H--1,2,6-thiadiazin-4-one]	4%	22%	48%	63%	–
COc1cc(Cl)cc(Oc2nsnc(Cl)c2=O)c1 [Compound 52, 3-chloro-5-[(3-chloro-5-methoxy)phenoxy]-4H--1,2,6-thiadiazin-4-one]	58%	77%	100%	100%	–
O=c1c(Cl)nsnc1Oc1cccc(Cl)c1 [Compound 13, 3-chloro-5-(3-chlorophenoxy)-4H--1,2,6-thiadiazin-4-one]	44%	42%	74%	100%	–
Cc1cccc(C)c1Oc1nsnc(Cl)c1=O [Compound 24, 3-chloro-5-(2,6-dimethylphenoxy)-4H--1,2,6-thiadiazin-4-one]	21%	42%	63%	100%	–
O=c1c(Cl)nsnc1Oc1ccccc1 [Compound 2, 3-chloro-5-phenoxy-4H--1,2,6-thiadiazin-4-one]	22%	26%	56%	100%	–
Cc1cc(Oc2nsnc(Cl)c2=O)cc(C)c1Br [Compound 60, 3-[(4-bromo-3,5-dimethyl)-phenoxy]-5-chloro-4H--1,2,6-thiadiazin-4-one]	32%	43%	43%	64%	–
Cc1ccc(Cl)c(Oc2nsnc(Cl)c2=O)c1 [Compound 56, 3-chloro-5-[(2-chloro-5-methyl)phenoxy]-4H--1,2,6-thiadiazin-4-one]	38%	67%	100%	100%	–
Cc1cc(C)cc(Oc2nsnc(Cl)c2=O)c1 [Compound 25, 3-chloro-5-(3,5-dimethylphenoxy)-4H--1,2,6-thiadiazin-4-one]	33%	58%	54%	63%	–
Nc1ccc(Oc2nsnc(Cl)c2=O)cc1 [Compound 26, 5-(4-aminophenoxy)-3-chloro-4H--1,2,6-thiadiazin-4-one]	–	–	–	100%	Percent Fungus Growth Inhibition (5 ppm): 0%; Percent Fungus Growth Inhibition (10 ppm): 48%; Percent Fungus Growth Inhibition (20 ppm): 90%
O=c1c(Cl)nsnc1Oc1cccc2ccccc12 [Compound 32, 3-chloro-5(1-naphthoxy)-4H-1,2,6-thiadiazin-4-one]	67%	78%	100%	89%	–
O=C(Nc1ccccc1)Nc1ccc(Oc2nsnc(Cl)c2=O)cc1 [Compound 29, 3-chloro-5-[4-(3-phenylureido)-phenoxy]-4H--1,2,6-thiadiazin-4-one]	19%	14%	0%	0%	–
O=c1c(Cl)nsnc1Oc1ccccc1Br [Compound 34, 3-chloro-5-(2-bromophenoxy)-4H-1,2,6,-thiadiazin-4-one]	38%	65%	100%	100%	–
O=c1c(Cl)nsnc1Oc1ccc(Br)cc1 [Compound 15, 3-chloro-5-(4-bromophenoxy)-4H--1,2,6-thiadiazin-4-one]	12%	19%	50%	58%	–
O=c1c(Cl)nsnc1Oc1c(Cl)c(Cl)c(Cl)c(Cl)c1Cl [Compound 31, 3-chloro-5-(pentachlorophenoxy)-4H--1,2,6-thiadiazine-4-one]	33%	48%	62%	57%	–
Nc1ccc(Oc2nsnc(Cl)c2=O)cc1 [Compound 27, 5-(4-aminophenoxy)-3-chloro-4H--1,2,6-thiadiazine-4-one hydrochloride]	–	–	–	–	Percent Fungus Growth Inhibition (5 ppm, hydrochloride): 24%; Percent Fungus Growth Inhibition (10 ppm, hydrochloride): 24%; Percent Fungus Growth Inhibition (20 ppm, hydrochloride): 0%; Percent Fungus Growth Inhibition (40 ppm, hydrochloride): 81%
Cc1ccc(Oc2nsnc(Cl)c2=O)c(C)c1 [Compound 23, 3-chloro-5-(2,4-dimethylphenoxy)-4H--1,2,6-thiadiazin-4-one]	21%	42%	46%	58%	–
COc1cc(Oc2nsnc(Cl)c2=O)cc(OC)c1C(C)=O [Compound 61, 3-[(4-acetyl-3,5-dimethoxy)-phenoxy]-5-chloro-4H--1,2,6-thiadiazin-4-one]	28%	42%	50%	44%	–
